For this assay, the target named is T1, recombinant METTL3/METTL14 complex (Homo sapiens, UniProt Q86U44).
T1 construct: purchased Active Motif 311970; host or cells: Sf9 cells
T1 sequence (Q86U44 whole entry): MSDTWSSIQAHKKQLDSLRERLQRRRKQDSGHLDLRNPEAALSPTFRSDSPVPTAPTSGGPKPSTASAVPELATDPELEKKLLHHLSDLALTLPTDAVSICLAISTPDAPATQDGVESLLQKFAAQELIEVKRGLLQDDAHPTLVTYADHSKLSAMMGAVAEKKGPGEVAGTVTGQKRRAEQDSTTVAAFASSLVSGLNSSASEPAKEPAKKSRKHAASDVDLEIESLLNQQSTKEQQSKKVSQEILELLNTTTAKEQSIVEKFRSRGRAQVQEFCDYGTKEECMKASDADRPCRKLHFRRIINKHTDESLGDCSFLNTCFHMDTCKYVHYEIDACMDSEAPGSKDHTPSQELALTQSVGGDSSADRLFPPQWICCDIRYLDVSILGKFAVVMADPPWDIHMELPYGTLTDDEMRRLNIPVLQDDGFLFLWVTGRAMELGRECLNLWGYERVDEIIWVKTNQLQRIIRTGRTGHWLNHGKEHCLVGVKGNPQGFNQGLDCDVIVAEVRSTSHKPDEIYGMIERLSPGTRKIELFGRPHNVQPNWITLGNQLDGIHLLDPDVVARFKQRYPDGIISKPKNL
T1 sequence (Q9HCE5 whole entry partner): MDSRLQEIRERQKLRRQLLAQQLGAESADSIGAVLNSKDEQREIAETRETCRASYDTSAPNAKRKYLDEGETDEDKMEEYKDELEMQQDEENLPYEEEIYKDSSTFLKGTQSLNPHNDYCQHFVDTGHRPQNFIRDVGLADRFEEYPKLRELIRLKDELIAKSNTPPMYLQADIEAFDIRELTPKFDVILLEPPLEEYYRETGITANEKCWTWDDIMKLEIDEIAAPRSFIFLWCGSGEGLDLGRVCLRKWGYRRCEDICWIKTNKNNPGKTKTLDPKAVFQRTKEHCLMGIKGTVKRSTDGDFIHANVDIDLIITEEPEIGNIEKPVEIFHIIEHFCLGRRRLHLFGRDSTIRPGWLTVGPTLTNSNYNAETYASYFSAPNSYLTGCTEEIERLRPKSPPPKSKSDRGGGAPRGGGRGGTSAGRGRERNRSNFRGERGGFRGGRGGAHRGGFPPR
As to the kind of experiment: METTL3/14 Scintillation Proximity Assay (SPA), RNA methyltransferase activity. The conditions noted are these: 5.31 nM METTL3/14 complex, 250 nM RNA substrate, 1 μM 3H-SAM, 90 min; for compounds marked * best of the two separated forms. It counts as biochemical.
With `CC(n1cc(-c2cncc(Cl)c2)nn1)n1ccc(N2CCC[C@@H](NCC3CCC3)C2)cc1=O` (mixture of isomers) [Compound 078, 1-(1-(4-(5-chloropyridin-3-yl)-1H-1,2,3-triazol-1-yl)ethyl)-4-((R)-3-((cyclobutylmethyl)amino)piperidin-1-yl)pyridin-2(1H)-one], the IC50 (commonly the concentration that gives 50% inhibition) is at most 0.05 µM. Next, `COc1cncc(-c2cn(C3(c4ccc(N5CCC[C@@H](NCC6CCC6)C5)nn4)CC3)nn2)c1` [Compound 115, (R)-N-(cyclobutylmethyl)-1-(6-(1-(4-(5-methoxypyridin-3-yl)-1H-1,2,3-triazol-1-yl)cyclopropyl)pyridazin-3-yl)piperidin-3-amine]: at most 0.05 µM; `Cn1c(N2CCCC2)cc(-c2cn(C3(c4ccc(N5CCC[C@@H](NCC6CC6)C5)cn4)COC3)nn2)cc1=O` [Compound 314, (R)-4-(1-(3-(5-(3-((cyclopropylmethyl)amino)piperidin-1-yl)pyridin-2-yl)oxetan-3-yl)-1H-1,2,3-triazol-4-yl)-1-methyl-6-(pyrrolidin-1-yl)pyridin-2(1H)-one]: at most 0.05 µM. `O=C(Nc1cnc2[nH]ccc2c1)C1(c2ccc(N3CCC[C@@H](NCC4CCC4)C3)cn2)COC1` [Compound 299, (R)-3-(5-(3-((cyclobutylmethyl)amino)piperidin-1-yl)pyridin-2-yl)-N-(1H-pyrrolo[2,3-b]pyridin-5-yl)oxetane-3-carboxamide]: the IC50 lay in the range of 0.05 to 0.5 µM. In the case of `O=c1cc(-c2cn(Cc3ccc(N4CCC[C@@H](NCC5CCC5)C4)cn3)nn2)nc2ccccn12` [Compound 127, (R)-2-(1-((5-(3-((cyclobutylmethyl)amino)piperidin-1-yl)pyridin-2-yl)methyl)-1H-1,2,3-triazol-4-yl)-4H-pyrido[1,2-a]pyrimidin-4-one], the IC50 was at most 0.05 µM. Under `CC(c1ccc(N2CCC[C@@H](NCC3CCC3)C2)nn1)n1cc(-c2cncc(N(C)C)c2)nn1` (mixture of isomers) [Compound 133, 5-(1-(1-(6-((R)-3-((cyclobutylmethyl)amino)piperidin-1-yl)pyridazin-3-yl)ethyl)-1H-1,2,3-triazol-4-yl)-N,N-dimethylpyridin-3-amine] stands at most 0.05 µM; under `COc1cnnc(-c2cn(Cc3ccc(N4CCC[C@@H](NCC5CCC5)C4)cn3)nn2)c1` [Compound 118, (R)-N-(cyclobutylmethyl)-1-(6-((4-(5-methoxypyridazin-3-yl)-1H-1,2,3-triazol-1-yl)methyl)pyridin-3-yl)piperidin-3-amine], at most 0.05 µM. Next, `CC(n1cc(-c2cncc(OC(F)F)c2)nn1)n1ccc(N2CCC[C@@H](NCC3CCC3)C2)cc1=O` (stereo partly drawn) [Compound 131]: at most 0.05 µM; `CC(C(=O)Nc1cc(=O)n2ccccc2n1)c1ccc(N2CCC[C@@H](NCC3CCC3)C2)cn1` (stereo partly drawn) [Compound 265, 2-(5-((R)-3-((cyclobutylmethyl)amino)piperidin-1-yl)pyridin-2-yl)-N-(4-oxo-4H-pyrido[1,2-a]pyrimidin-2-yl)propanamide]: at most 0.05 µM; `CC(n1cnc(-c2cncc(N(C)C)c2)c1)n1ccc(N2CCC[C@@H](NCC3CC3)C2)cc1=O` (single isomer, unassigned) [Compound 266]: at most 0.05 µM. Under `CC(C(=O)Nc1cc(=O)n2ccccc2n1)c1ccc(N2CCC[C@@H](NCC3CCC3)C2)nn1` (stereo partly drawn) [Compound 275, 2-(6-((R)-3-((cyclobutylmethyl)amino)piperidin-1-yl)pyridazin-3-yl)-N-(4-oxo-4H-pyrido[1,2-a]pyrimidin-2-yl)propanamide] stands 0.05 to 0.5 µM. Regarding `CC(n1cnc(-c2cc(=O)n3ccccc3n2)c1)n1ccc(N2CCC[C@@H](NCC3CCC3)C2)cc1=O` (single isomer, unassigned) [Compound 170], the IC50 was at most 0.05 µM. Next, `COc1cnnc(-c2cn(Cc3ccc(N4CCC[C@@H](NCC5CCC5)C4)cc3)nn2)c1` [Compound 136, (R)-N-(cyclobutylmethyl)-1-(4-((4-(5-methoxypyridazin-3-yl)-1H-1,2,3-triazol-1-yl)methyl)phenyl)piperidin-3-amine]: at most 0.05 µM. On to `COc1cc(-c2cn(Cc3ccc(N4CCCC(N5CC6(CCC6)C5)C4)nn3)nn2)c2cn[nH]c2c1` (stereo not drawn) [Compound 035, 4-(1-((6-(3-(2-azaspiro[3.3]heptan-2-yl)piperidin-1-yl)pyridazin-3-yl)methyl)-1H-1,2,3-triazol-4-yl)-6-methoxy-1H-indazole], for which the IC50 was at most 0.05 µM.

`Cc1cc(N2CCC[C@@H](NCC3CC3)C2)cc(=O)n1Cn1cc(-c2cncc(N(C)C)c2)nn1` [Compound 163]: the IC50 was at most 0.05 µM. `COc1cncc(-c2nnc(C(C)n3ccc(N4CCC[C@@H](NCC5CCC5)C4)cc3=O)s2)c1` (stereo partly drawn) [Compound 119, 4-((R)-3-((cyclobutylmethyl)amino)piperidin-1-yl)-1-(1-(5-(5-methoxypyridin-3-yl)-1,3,4-thiadiazol-2-yl)ethyl)pyridin-2(1H)-one]: the IC50 was at most 0.05 µM. Next, `CC(c1ccc(N2CCC[C@@H](NCC3CCC3)C2)cc1)n1cc(-c2cc(=O)n3ccccc3n2)nn1` (stereo partly drawn) [Compound 102]: at most 0.05 µM. Under `CCOc1cncc(-c2cn(C(C)n3ccc(N4CCC[C@@H](NCC5CCC5)C4)cc3=O)nn2)c1` (mixture of isomers) [Compound 103, 4-((R)-3-((cyclobutylmethyl)amino)piperidin-1-yl)-1-(1-(4-(5-ethoxypyridin-3-yl)-1H-1,2,3-triazol-1-yl)ethyl)pyridin-2(1H)-one] stands at most 0.05 µM. Next, `C[C@H](NC(=O)c1cc(=O)n2ccccc2n1)c1ccc(N2CCC[C@@H](NCC3CCC3)C2)cc1` [Compound 074, N-((S)-1-(4-((R)-3-((cyclobutylmethyl)amino)piperidin-1-yl)phenyl)ethyl)-4-oxo-4H-pyrido[1,2-a]pyrimidine-2-carboxamide]: at most 0.05 µM; `CC(c1ccc(N2CCC[C@@H](NCC3CCC3)C2)cn1)n1cc(-c2cc(=O)n3ccccc3n2)nn1` (mixture of isomers) [Compound 099, 2-(1-(1-(5-((R)-3-((cyclobutylmethyl)amino)piperidin-1-yl)pyridin-2-yl)ethyl)-1H-1,2,3-triazol-4-yl)-4H-pyrido[1,2-a]pyrimidin-4-one]: at most 0.05 µM. Consider `COc1cnc(C#N)c(-c2cn(C(C)n3ccc(N4CCC[C@@H](NCC5CCC5)C4)cc3=O)nn2)c1` (single isomer, unassigned) [Compound 109], for which the concentration for half-maximal inhibition (IC50) is at most 0.05 µM. Next, `COc1cc(-c2cn(Cn3cc(F)c(N4CCCC(NCC5CCC5)C4)cc3=O)nn2)c2cn[nH]c2c1` (stereo not drawn) [Compound 054, 4-(3-((cyclobutylmethyl)amino)piperidin-1-yl)-5-fluoro-1-((4-(6-methoxy-1H-indazol-4-yl)-1H-1,2,3-triazol-1-yl)methyl)pyridin-2(1H)-one]: 0.5 to 3.5 µM; `COc1cncc(-c2cn(Cc3ccc(N4CCCC(C)(NCC5CCC5)C4)nn3)nn2)c1` (stereo not drawn) [Compound 053, N-(cyclobutylmethyl)-1-(6-((4-(5-methoxypyridin-3-yl)-1H-1,2,3-triazol-1-yl)methyl)pyridazin-3-yl)-3-methylpiperidin-3-amine]: 0.05 to 0.5 µM; `O=c1[nH]c(-c2cn(Cc3ccc(N4CCC[C@@H](NCC5CCC5)C4)nn3)nn2)cc2ccccc12` [Compound 048, (R)-3-(1-((6-(3-((cyclobutylmethyl)amino)piperidin-1-yl)pyridazin-3-yl)methyl)-1H-1,2,3-triazol-4-yl)isoquinolin-1(2H)-one]: at most 0.05 µM.

The values above are taken from patent publication US20250002475A1 (EPICS THERAPEUTICS, priority 2023, published 2025).
